Data: patent US20260027221A1, “Targeted Pyrrolobenzodiazapine Conjugates” (BeOne Medicines I GmbH, priority 2023, published 2026)
Values joined by “and” are separate entries in the source; they are usually repeats but may differ in a detail not shown here. Identical values can stand only once.

Key:
A375 cells = test: Compounds cellular killing in A375 cancer line (Cell Titer-Glo, 6 days); format: cell-based, human; settings: 6 days incubation, cell viability by Cell Titer-Glo; for EC50 / Emax: Homo sapiens, A-375, 144 h
Description: (§1) A375 (ATCC, CRL-1619). […] The base medium for A375 is DMEM, high glucose, GlutaMAX™ Supplement (Gibco, 10566024). To make the complete growth medium, fetal bovine serum was added to the base mediumat a final concentration of 10% (Gibco, 10099-141C). The cell line was grown in a humidified 5% CO2 atmosphere at 37° C., and was regularly tested for the presence of mycoplasma with MycoAlert™ PLUS Mycoplasma Detection Kit (Lonza, LT07-710).
(§2) Payload direct killing by compounds 1-1 to 1-22 was assessed in A375 and Calu-6 cancer cell lines. Cells were seeded at 1E3/well (A375) 2E3/well (Calu-6) into 96-well plates (Greiner: 655090), 100 μL/well, and incubated at 37° C., 5% CO2, overnight. Fresh growth medium was added containing varying concentrations of compounds, 50 μL/well, and incubated at 37° C., 5% CO2, for 6 days. The cell viability detected by Cell Titer-Glo (Promega, G7573), 70 μL/well. The plates were allowed to incubate at room temperature for 10 minutes to stabilize the luminescent signal. The plates were analyzed with a microplate reader.

Calu-6 cells = test: Compounds cellular killing in Calu-6 cancer line (Cell Titer-Glo, 6 days); format: cell-based, human; settings: 6 days incubation, cell viability by Cell Titer-Glo; for EC50 / Emax: Homo sapiens, Calu-6, 144 h
Description: as §1, with “Calu-6” for “A375”, “HTB-56).” for “CRL-1619).”, “Eagle's Minimum Essential Medium (ATCC, 30-2003).” for “DMEM, high glucose, GlutaMAX™ Supplement (Gibco, 10566024).”
as §2

| SMILES | EC50 (A375 cells) [nM] | Emax (A375 cells) [%] | EC50 (Calu-6 cells) [nM] | Emax (Calu-6 cells) [%] | A375 Emax (%) (A375 cells) | Calu-6 Emax (%) (Calu-6 cells) |
| --- | --- | --- | --- | --- | --- | --- |
| COc1cc2c(cc1OCCCCCOc1cc3c(cc1OC)C(=O)N1Cc4ccccc4C[C@H]1C=N3)N=C[C@@H]1CC3(CCN1C2=O)CC3 [Compound 1-20, (S)-2-methoxy-3-((5-(((S)-2-methoxy-12-oxo-6a,9,10,12-tetrahydro-7H-spiro[benzo[e]pyrido[1,2-a][1,4]diazepine-8,1′-cyclopropan]-3-yl)oxy)pentyl)oxy)-7,12-dihydrobenzo[5,6][1,4]diazepino[1,2-b]isoquinolin-14(6aH)-one] | 0.064 | 95.9 | 0.016 | 98.3 |  |  |
| COc1cc2c(cc1OCc1cccc(COc3cc4c(cc3OC)C(=O)N3CC5(CC5)C[C@H]3C=N4)c1)N=C[C@@H]1CC3(CC3)CN1C2=O [Compound 1-8, (11aS,11a″S)-8,8″-((1,3-phenylenebis(methylene))bis(oxy))bis(7-methoxy-1,11a-dihydro-3H,5H-spiro[benzo[e]pyrrolo[1,2-a][1,4]diazepine-2,1′-cyclopropan]-5-one)] | 0.029 | 99.2 | 0.005 | 98.4 |  |  |
| COc1cc2c(cc1OCCNCCOc1cc3c(cc1OC)C(=O)N1CC4(CC4)C[C@H]1C=N3)N=C[C@@H]1CC3(CC3)CN1C2=O [Compound 1-13, (11aS,11a″S)-8,8″-((azanediylbis(ethane-2,1-diyl))bis(oxy))bis(7-methoxy-1,11a-dihydro-3H,5H-spiro[benzo[e]pyrrolo[1,2-a][1,4]diazepine-2,1′-cyclopropan]-5-one)] | 9.12 | 100 | 1.62 | 99.7 |  |  |
| COc1cc2c(cc1OCCCOc1cc3c(cc1OC)C(=O)N1CC4(CC4)C[C@H]1CN3)N=C[C@@H]1Cc3ccccc3CN1C2=O [Compound 1-15, (S)-2-methoxy-3-(3-(((S)-7-methoxy-5-oxo-5,10,11,11a-tetrahydro-1H,3H-spiro[benzo[e]pyrrolo[1,2-a][1,4]diazepine-2,1′-cyclopropan]-8-yl)oxy)propoxy)-7,12-dihydrobenzo[5,6][1,4]diazepino[1,2-b]isoquinolin-14(6aH)-one] | 0.134 | 99.5 | 0.045 | 99.7 |  |  |
| COc1cc2c(cc1OCCCCCOc1cc3c(cc1OC)C(=O)N1C=C(C)C[C@H]1C=N3)N=C[C@@H]1CC(C)=CN1C2=O [Ref-1-1, reference compound] |  | 99.8 |  | 99.5 | 99.9% and 99.6% | 99.8% and 99.3% and 93.1% |
| C=C1CCN2C(=O)c3cc(OC)c(OCCCCCOc4cc5c(cc4OC)C(=O)N4CC6(CC6)C[C@H]4C=N5)cc3N=C[C@@H]2C1 [Compound 1-7, (S)-7-methoxy-8-((5-(((S)-2-methoxy-8-methylene-12-oxo-6a,7,8,9,10,12-hexahydrobenzo[e]pyrido[1,2-a][1,4]diazepin-3-yl)oxy)pentyl)oxy)-1,11a-dihydro-3H,5H-spiro[benzo[e]pyrrolo[1,2-a][1,4]diazepine-2,1′-cyclopropan]-5-one] | 0.102 | 89 | 0.017 | 97.7 |  |  |
| C=C1C[C@H]2C=Nc3cc(OCCNCCOc4cc5c(cc4OC)C(=O)N4CC(=C)C[C@H]4C=N5)c(OC)cc3C(=O)N2C1 [Compound 1-21, (11aS,11a'S)-8,8′-((azanediylbis(ethane-2,1-diyl))bis(oxy))bis(7-methoxy-2-methylene-1,2,3,11a-tetrahydro-5H-benzo[e]pyrrolo[1,2-a][1,4]diazepin-5-one)] | 4.2 | 97.8 | 1.2 | 99.3 |  |  |
| C=C1C[C@H]2C=Nc3cc(OCCN(C)CCOc4cc5c(cc4OC)C(=O)N4CC(=C)C[C@H]4C=N5)c(OC)cc3C(=O)N2C1 [Compound 1-22, (11aS,11a′S)-8,8′-(((methylazanediyl)bis(ethane-2,1-diyl))bis(oxy))bis(7-methoxy-2-methylene-1,2,3,11a-tetrahydro-5H-benzo[e]pyrrolo[1,2-a][1,4]diazepin-5-one)] | 5.5 | 97.3 | 1.3 | 99.2 |  |  |
